“And” between values parts separate entries of the source, which are not always exact repeats. Equal entries are not always repeated. Where two headings read alike, the source gives them in different places.
Assays:
[1] = Plasma concentration of Compound 1.003 after single intranasal administration of nasal formulation Ex. A (LC-MS/MS); type: in vivo, Mouse; conditions: female athymic mice
Experimental: (§1) This study was conducted to investigate the potential for Compound 1.003 to penetrate into the brain following a single intranasal administration of a nasal formulation including the compound. Compound 1.003 was formulated at a dose strength of 2.3% according to Ex. A of Example 1.
(§2) A single group of female athymic mice each received a single intranasal administration of Compound 1.003. At intervals post dose the animals were sacrificed and samples of blood and brain were collected. The concentration of Compound 1.003 was determined in plasma and brain; and samples of brain were used for determination of the expression of phosphor-ERK (p-ERK).
(§3) The study was conducted using the following animals: • Species: Mouse; • Strain: NCr mu/mu athymic nude mice from Charles River; • Sex: Female; • Age: 7 weeks old at the time of dosing; • Body weight: 20.1 to 27.0 g; and • Number used: 12
(§4) Overview: A single group of 12 athymic female mice each received a single intranasal administration of Compound 1.003 (Ex. A nasal formulation of Example 1). Three animals were sacrificed at each a 4 times post dose and sample of plasma and brain collected at necropsy. The concentration of Compound 1.003 was determined in plasma and brain by liquid chromatography with tandem mass spectrometry (LC-MS/MS) and the expression of p-ERK was determined in brain samples.
(§5) Dosing: Each animal received a single administration (50 μL) of the nasal formulation Ex. A including Compound 1.003. The dose was administration intranasally to each animal.
(§6) (dry ice). The samples were send out for the LC-MS/MS analysis of plasma concentration of Compound 1.003. • Brain Collection: Brain (divide into 2 parts at the mid sagittal plane); Part 1: preservation—snap frozen, ship at −80° C. (dry ice) for the LC-MS/MS analysis of Compound 1.003; and Part 2: preservation—fixed in 10% neutral buffered formalin for at least 24 h. Samples were then transferred after 24 h into 1.5 mL Eppendorf tubes containing 70% EtOH and stored ambient until shipment for the expression of p-ERK.
(§7) Bioanalytical Methods: Bioanalysis of […] plasma and brain samples for Compound 1.003 was performed using the LC-MS/MS analysis. For this study, the analysis was conducted using existing fit for purpose bioanalytical methods. Plasma samples were analyzed undiluted against a plasma standard curve (10 standards between 0.5 to 5000 ng/mL). Prior to analysis for concentration of compound 1.003, the brain samples were weighed, mixed with 5 volumes of water and then homogenised. Homogenised samples were then diluted 2× into plasma and then analysed against the plasma standard curve ([…]). All results were then corrected for the dilution factor.

[2] = Brain concentration and brain:plasma ratio of Compound 1.003 after single intranasal administration of nasal formulation Ex. A (LC-MS/MS); type: in vivo, Mouse; conditions: female athymic mice, single intranasal 50 μL Ex. A; for Brain concentration, animal replicates: individual animals; for Brain concentration, Mean: mean of 3
Experimental: as §1, §2, §3, §4, §5, §6, §7

Question: For `Cn1c(Nc2ccc(I)cc2F)c(C(=O)NOCCO)c2cccnc21` [Compound 1.003, 2-((2-fluoro-4-iodophenyl)amino)-N-(2-hydroxyethoxy)-1-methyl-1H-pyrrolo[2,3-b]pyridine-3-carboxamide], which Cmax ([1]; NCr mu/mu athymic nude, mouse, plasma, inhaled or intranasal, single intranasal 50 μL Ex. A, read-out: maximum plasma concentration (Cmax)) is on record?
Answer: The Cmax was 996 ng/mL.

Question: What about the “Plasma concentration, animal replicates” value ([1]; single intranasal 50 μL Ex. A, 0.5 h post dose, individual animals) of the same compound?
Answer: The value was 1000 ng/mL and 823 ng/mL.

Question: What about the “Plasma concentration, animal replicates” value ([1]; single intranasal 50 μL Ex. A, 1.0 h post dose, individual animals) of the same compound?
Answer: Its value is 82.4 ng/mL and 125 ng/mL.

Question: And the “Plasma concentration, animal replicates” value ([1]; single intranasal 50 μL Ex. A, 4.0 h post dose, individual animals)?
Answer: Its value is 52.4 ng/mL and 82.4 ng/mL.

Question: What about the “Plasma concentration, animal replicates” value ([1]; single intranasal 50 μL of nasal formulation Ex. A (2.3%), 0.25 h post dose, individual animals) of the same compound?
Answer: Its value is 1190 ng/mL and 1230 ng/mL and 568 ng/mL.

Question: What about the concentration at 0.5 h ([1]; female, NCr mu/mu athymic nude, mouse, plasma, other: intranasal, 50 μL, single intranasal 50 μL Ex. A, 0.5 h post dose, individual animals, read-out: Plasma concentration, animal replicates) of the same compound?
Answer: The concentration at 0.5 h was 757 ng/mL.

Question: What about the concentration at 0.5 h ([1]; female, NCr mu/mu athymic nude, mouse, plasma, other: intranasal, 50 μL, single intranasal 50 μL Ex. A, 0.5 h post dose, mean of 3, read-out: Plasma concentration, Mean) of the same compound?
Answer: Its concentration at 0.5 h is 860 ng/mL.

Question: And the concentration at 1 h ([1]; female, NCr mu/mu athymic nude, mouse, plasma, other: intranasal, 50 μL, single intranasal 50 μL Ex. A, 1.0 h post dose, individual animals, read-out: Plasma concentration, animal replicates)?
Answer: The concentration at 1 h was 130 ng/mL.

Question: What about the concentration at 1 h ([1]; female, NCr mu/mu athymic nude, mouse, plasma, other: intranasal, 50 μL, single intranasal 50 μL Ex. A, 1.0 h post dose, mean of 3, read-out: Plasma concentration, Mean) of the same compound?
Answer: The concentration at 1 h was 112 ng/mL.

Question: And the concentration at 4 h ([1]; female, NCr mu/mu athymic nude, mouse, plasma, other: intranasal, 50 μL, single intranasal 50 μL Ex. A, 4.0 h post dose, individual animals, read-out: Plasma concentration, animal replicates)?
Answer: The concentration at 4 h was 45.5 ng/mL.

Question: What about the concentration at 4 h ([1]; female, NCr mu/mu athymic nude, mouse, plasma, other: intranasal, 50 μL, single intranasal 50 μL Ex. A, 4.0 h post dose, mean of 3, read-out: Plasma concentration, Mean) of the same compound?
Answer: Its concentration at 4 h is 60.1 ng/mL.

Question: And the concentration at 0.25 h ([1]; female, NCr mu/mu athymic nude, mouse, plasma, other: intranasal, 50 μL, single intranasal 50 μL of nasal formulation Ex. A (2.3%), 0.25 h post dose, mean of 3)?
Answer: Its concentration at 0.25 h is 996 ng/mL.

Question: What about the “Brain:plasma concentration ratio, individual animal” value ([2]; 0.250 h post dose, animals 1-3) of the same compound?
Answer: The value was 0.30 and 0.49.

Question: And the “Brain concentration, animal replicates” value ([2]; 0.250 h post dose)?
Answer: Its value is 405 and 375 and 280.

Question: What about the Brain concentration, Mean ([2]; 0.250 h post dose) of the same compound?
Answer: The Brain concentration, Mean was 353 ng/g.

Question: What about the “Brain:plasma concentration ratio, individual animal” value ([2]; 0.500 h post dose, animals 4-6) of the same compound?
Answer: The value was 0.51 and 0.47.

Question: And the “Brain concentration, animal replicates” value ([2]; 0.500 h post dose)?
Answer: Its value is 297 and 513 and 383.

Question: And the Brain concentration, Mean ([2]; 0.500 h post dose)?
Answer: The Brain concentration, Mean was 398 ng/g.

Question: And the “Brain:plasma concentration ratio, individual animal” value ([2]; 1.00 h post dose, animals 7-9)?
Answer: The value was 1.45 and 2.49 and 1.15.

Question: What about the “Brain concentration, animal replicates” value ([2]; 1.00 h post dose) of the same compound?
Answer: Its value is 188 and 205 and 144.

Question: And the Brain concentration, Mean ([2]; 1.00 h post dose)?
Answer: The Brain concentration, Mean was 179 ng/g.

Question: And the “Brain:plasma concentration ratio, Mean” value ([2]; 4.00 h post dose)?
Answer: Its value is 1.72.

Question: And the “Brain:plasma concentration ratio, individual animal” value ([2]; 4.00 h post dose, animals 10-12)?
Answer: The value was 3.65 and 0.89 and 0.63.

Question: What about the “Brain concentration, animal replicates” value ([2]; 4.00 h post dose) of the same compound?
Answer: The value was 166 and 46.5 and 51.9.

Question: And the Brain concentration, Mean ([2]; 4.00 h post dose)?
Answer: Its Brain concentration, Mean is 88.1 ng/g.

Question: What about the Kp at 0.25 h ([2]; female, NCr mu/mu athymic nude, mouse, brain, inhaled or intranasal, 50 μL, 0.250 h (15 min) post dose, read-out: Brain:plasma concentration ratio, Mean) of the same compound?
Answer: Its Kp at 0.25 h is 0.38.

Question: What about the Kp at 0.25 h ([2]; female, NCr mu/mu athymic nude, mouse, brain, inhaled or intranasal, 50 μL, 0.250 h post dose, animals 1-3, read-out: Brain:plasma concentration ratio, individual animal) of the same compound?
Answer: The Kp at 0.25 h was 0.34.

Question: And the Kp at 0.5 h ([2]; female, NCr mu/mu athymic nude, mouse, brain, inhaled or intranasal, 50 μL, 0.500 h post dose, animals 4-6, read-out: Brain:plasma concentration ratio, individual animal)?
Answer: Its Kp at 0.5 h is 0.39.

Question: What about the Kp at 0.5 h ([2]; female, NCr mu/mu athymic nude, mouse, brain, inhaled or intranasal, 50 μL, 0.500 h post dose, read-out: Brain:plasma concentration ratio, Mean) of the same compound?
Answer: The Kp at 0.5 h was 0.46.

Question: And the Kp at 1 h ([2]; female, NCr mu/mu athymic nude, mouse, brain, inhaled or intranasal, 50 μL, 1.00 h post dose)?
Answer: The Kp at 1 h was 1.7.

Question: And the Kp at 4 h ([2]; female, NCr mu/mu athymic nude, mouse, brain, inhaled or intranasal, 50 μL, 4.00 h post dose)?
Answer: Its Kp at 4 h is 1.7.
